The source of these data is US20250312468A1, “ANTI-PROTAC ANTIBODIES AND COMPLEXES” (Merck Patent GmbH, priority 2021, published 2025).

For orientation: IC50 means the concentration that inhibits the measured activity by half.

SMILES strings stand for the structures.

Data set [1] in a line: Mouse serum stability. In kind it is in vitro ADME. The note with it: 5 μM, 37° C. The procedure: The mixture was incubated 2 hours at room temperature while shaking at 650 rpm. 15% (vol/vol) 2 M HEPES buffer pH 7.55 were added to mouse serum from Biowest (Lot.no. S18169S2160) followed by sterile filtration.
The incubation was stopped by freezing at −20° C.
The concentration of PROTAC GNE987 was quantified using LC-MS.
Quantification was performed using a total antibody ELISA (FIG. 24).

The subject of data set [2] is MV411 xenograft. As to the kind of experiment: MV411 xenograft efficacy study in female CB17 SCID mice. Format: in vivo, mouse. The method, then:
Human leukemic MV411 cells were xenografted in immunocompromised mice. Three million MV411 cells were injected subcutaneously in the left flank of untreated female CB17 SCID mice. Randomization of the animals in the different treatment groups and the initiation of the treatment was started after the average tumor size reached 45 mm^2. The control groups were treated with vehicle. The test groups were treated with 0.38 mg/kg GNE987 and 30 mg/kg CD33xMIC7+GNE987 (loaded with 0.38 mg/kg GNE987) once (at day 1). Further, two groups were treated twice, either with 30 mg/kg CD33xMIC7+GNE987 (loaded with 0.38 mg/kg GNE987) at day 1 followed by treatment with 0.38 mg/kg GNE987 at day 8 or with 0.38 mg/kg GNE987 at day 1 and 8. Additionally, one group received 30 mg/kg CD33xMIC5+GNE987 (loaded with 0.38 mg/kg GNE987) once (at day 1) and another group received the antibody control 30 mg/kg CD33xMIC7 without PROTAC once (at day 1). The individual groups were stopped before tumors reached a maximum tumor size (225 mm^2) (FIG. 49).

For data set [3] the following is noted: Pillow, T. H. et al., ChemMedChem 15 (2020) 17-25; cited from earlier work.
The target in data set [4] is BRD4 (Homo sapiens, UniProt O60885). Nature of the data set: BRD4 degradation, immunofluorescence imaging in MDA-MB-468 cells. The note with it: 4 nM, 43 h, relative to untreated cells. Format: cell-based. Set-up: endogenous in cells; host or cells: MDA-MB-468. The procedure: BRD4 was chosen as the model protein for the disclosed invention due to the strong pharmacological effect (cell death) that is induced upon degradation of BRD4. For the evaluation of targeted BRD4 degradation, MDA-MB-468 cells were seeded into a black 96 well clear bottom plates (10,000 cells/well) followed by incubation (37° C., 5% CO2) in a humid chamber overnight. Test compounds were added using a D300e digital dispenser (Tecan) and incubated for 43 h (37° C., 5% CO2, humid chamber). Cells were washed 3× with PBS, fixed in 2% (v/V) formaldehyde for 15 min at rt and washed again (3×). To permeabilize cells, 0.2% (v/V) Triton-X-100 was added for 10 min at rt and removed by washing with PBS (3×). Wells were blocked with 3% (w/v) BSA in PBS for 60 min at rt, washed trice, and cells were incubated with 2.3 μg/mL rabbit anti-BRD4 antibody (Abcam) diluted in 3% BSA/PBS for […] at 4° C. overnight. […] After a final washing step, cells were preserved in 0.1% (w/V) sodium azide and transferred to a Cytation 5 cell imaging reader (Biotek). […] For quantitative analysis of nuclear BRD4 levels, only the green fluorescence (AF488) co-localized with DAPI staining was counted. Green fluorescence was normalized to cell number and expressed relative to untreated cells.

Data set [5] concerns NCIN87. Nature of the data set: CellTiter-Glo cell viability assay (VHH-based PAX). The following applies: NCIN87, PROTAC alone.
Data set [6] concerns RAMOS cells. As to the kind of experiment: CellTiter-Glo cell viability assay (VHH-based PAX). The note with it: PROTAC alone.
Data set [7] relates to SKBR3. As to the kind of experiment: CellTiter-Glo cell viability assay (VHH-based PAX). The note with it: SKBR3, PROTAC alone. A general note: ATP-based viability assays read luminescence as a measure of living cells.

Take `Cc1ncsc1-c1ccc(CNC(=O)[C@@H]2C[C@@H](O)CN2C(=O)[C@@H](NC(=O)CCCCCCCCCCNC(=O)c2cc3c(cc2CS(C)(=O)=O)-c2cn(C)c(=O)c4[nH]cc(c24)CN3c2ncc(F)cc2F)C(C)(C)C)cc1` [GNE987]: the “stability of GNE987 in mouse serum (LC-MS)” value in data set [1] was “stable over 72 hours”. Moreover, in data set [2] (0.38 mg/kg GNE987 at day 1 and 8), the “day post re-dosing where tumors started to grow again” value is around 3 days. The “anti-tumor effect (in words)” value in data set [2] (dosed once at day 1) was “induced anti-tumor effects”. For the same compound, the “day until which tumor growth was inhibited / tumors started to progress” value in data set [2] (single dose at day 1 (0.38 mg/kg GNE987 or 30 mg/kg PAX)) is around 4 days. For the same compound, the “half-life reported in literature” value in data set [3] was 2.8 h. For the same compound, the “remaining BRD4” value in data set [4] is given as 39.0%. Moreover, the results for the half-maximal inhibitory concentration (IC50) in data set [5], in data set [6] and in data set [7] were 0.53 nM, 0.058 nM and 0.39 nM, respectively.
